In patent US9024019B2, “Insecticidal triazinone derivatives” (Syngenta Participations AG, priority 2011, dated 2015):

Row | SMILES | melting point
1 | CO/N=C/C1=NNC(=O)N(/N=C/c2cncc(F)c2)C1 | 226 to 227 °C
2 | CO/N=C/C1=NNC(=O)N(/N=C/c2ccc[n+]([O-])c2)C1 | 229 °C (dec.)
3 | CO/N=C/C1=NNC(=O)N(/N=C/c2cncnc2)C1 | 244 to 245 °C
4 | CO/N=C/C1=NNC(=O)N(/N=C/c2cnccn2)C1 | 233 to 234 °C
5 | CCO/N=C/C1=NNC(=O)N(/N=C/c2cccnc2)C1 | 233 to 234 °C
6 | O=C1NN=C(C2=NOC(C(F)(F)F)(C(F)(F)F)C2)CN1/N=C/c1cncc(F)c1 | 290 °C (dec.)

Continued, values first:

Row | melting point | SMILES
7 | 237 to 238 °C | CO/N=C/C1=NNC(=O)N(/N=C/c2cccnc2)C1
8 | 230 to 231 °C | CO/N=C(\C)C1=NNC(=O)N(/N=C/c2cccnc2)C1
9 | 229 °C (dec.) | CN(C)/N=C/C1=NNC(=O)N(/N=C/c2cccnc2)C1
10 | 212 °C (dec.) | CC1(C)CC(C2=NNC(=O)N(/N=C/c3cccnc3)C2)=NO1
11 | 260 °C (dec.) | CC1(C)CC(C2=NNC(=O)N(/N=C/c3cncc(F)c3)C2)=NO1
12 | 270 °C (dec.) | O=C1NN=C(C2=NOC(C(F)(F)F)(C(F)(F)F)C2)CN1/N=C/c1cccnc1
